In PubChem BioAssay AID2060494 (Molecular Pharmacology Branch, DTP, NCI, 2025):
One block for each compound: values may come before it.

Tested on: 435261-313-R-J1-PDC complex spheroid viability
Assay: Anticancer human tumor 435261-313-R-J1-PDC patient-derived colon adenocarcinoma cell line growth inhibition [GQUAD]
Settings: for IC50: curve of first compound; for viability, T/C: stronger effect = lower value
From the text: DNA G-quadruplex Stabilizer Agents in Combinations in Complex Spheroids
A high-throughput screen of multi-cell type tumor spheroids was designed to identify active combinations of DNA G-quadruplex stabilizer agents and targeted small molecules. Complex spheroids include a stromal component modeled by human endothelial cells (HUVEC) and fibroblasts modeled by human mesenchymal stem cells (MSCs). The concentration ranges selected for each drug and investigational agent were based upon clinically achievable concentrations if the clinical Cmax of the agent was known.
Compounds. The drugs and investigational agents: pidnarulex (CX-5461; NSC782164), APTO-253 (NSC789042), BRACO-19 (NSC847499), peposertib (NSC802822), ceralasertib (NSC780249), elimusertib (NSC800525), camonsertib (NSC841442), AZD-1390 (NSC803789), olaparib (NSC753686), talazoparib (NSC767125), ART-558 (NSC835418), sotorasib (NSC818433), MRTX-1133 (NSC836407), SN-38 (NSC673596), topotecan (NSC609699), etoposide (NSC141540), doxorubicin (NSC123127), gemcitabine (NSC613327), 5-fluorouracil (NSC19893), paclitaxel (NSC125973), vemurafenib (NSC761431), panobinostat (NSC761190), R-306465 (JNJ-16241199; NSC773264), adavosertib (NSC754352), TP-3654 (NSC805149), carboplatin (NSC241240), KSQ-4279 (NSC840948), and staurosporine (NSC755774) were obtained from the National Cancer Institute (NCI) Developmental Therapeutics Program Chemical Repository (34). The FDA-approved anticancer drug set is available from the NCI Developmental Therapeutics Program. […] The stock solutions were prepared in dimethyl sulfoxide (DMSO, Sigma-Aldrich, St. Louis, MO, cat. D2650) at 800-fold the tested concentration and stored at -70 degrees C prior to their use. All drugs and investigational agents were tested over a range starting from a high concentration at or near the clinical Cmax and decreasing in half-log increments. If the clinical Cmax for an agent had not been determined, the highest concentration tested was 10 microM.
2.3 Cell Culture. All cells were maintained in an incubator at 37 degrees C and 5% CO2 with 95% humidity. The PDC lines were cultured according to standard operating procedures established by the NCI PDMR. All PDCs were thawed and cultured in Matrigel-coated flasks prepared with a working solution of 1X Ham's F-12 nutrient mix, without supplementation (Invitrogen, cat. 11765054), 100 U/mL penicillin-streptomycin (Invitrogen, cat. 15140122), and 2.5% Matrigel (Corning Inc., cat. 354248) for the first three passages. The 857933-349-R-J2-PDC line was cultured in 6C/Colon 1B media, which includes advanced DMEM/F-12 (Thermo Fisher Scientific, cat. 12634028), 10 mM HEPES (Thermo Fisher Scientific, cat. 15630080), 1X GlutaMAX supplement (Thermo Fisher Scientific, cat. 35050061), 0.1 mg/mL primocin (InvivoGen, cat. ant-pm-2), 10% defined fetal bovine serum, heat inactivated (HyClone Laboratories Inc., cat. SH30070.03HI), 50% L-WRN conditioned media (ATCC, cat. CRL-3276), 1.25 mM N-Acetyl-L-cysteine (Sigma-Aldrich, cat. A9165), 10 mM nicotinamide (Sigma-Aldrich, cat. N0636), 1X B-27 supplement (Thermo Fisher Scientific, cat. 17504044), 1X N-2 supplement (Thermo Fisher Scientific, cat. 17502048), 10 microM Y-27632 dihydrochloride (Tocris Bioscience, cat. 1254), and 50 ng/mL human EGF recombinant protein (Thermo Fisher Scientific, cat. PHG0311). The 485176-168-R4-J1-PDC line was cultured in Panc media, which includes all 6C/Colon 1B media components plus 100 ng/mL human FGF-10 (Thermo Fisher Scientific, cat. 100-26), 500 nM SB-431542 (Selleckchem, cat. S1067), and gastrin (Tocris, cat. 3006).
[…]

[1] = second compound 0.0316 µM, first compound 0.0316 µM
[2] = second compound 0.0316 µM, first compound 0.316 µM
[3] = second compound 0.1 µM, first compound 0.0316 µM
[4] = second compound 0.1 µM, first compound 0.316 µM
[5] = second compound 0.316 µM, first compound 0.0316 µM
[6] = second compound 0.316 µM, first compound 0.316 µM
[7] = second compound 1 µM, first compound 0.0316 µM
[8] = second compound 1 µM, first compound 0.316 µM
[9] = second compound 3.16 µM, first compound 0.0316 µM
[10] = second compound 3.16 µM, first compound 0.316 µM
[11] = second compound 10 µM, first compound 0.0316 µM
[12] = second compound 10 µM, first compound 0.316 µM
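Also: spheroids exposed to the agents for seven days before readout.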
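For viability, T/C in this document: percent of vehicle control viability with DMSO wells as 100%.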

IC50 (second compound 0.0316 µM): 825 nM | IC50 (second compound 0.1 µM): > 10000 nM | IC50 (second compound 0.316 µM): 5200 nM | IC50 (second compound 1 µM): < 31.6 nM | IC50 (second compound 3.16 µM): < 31.6 nM | IC50 (second compound 10 µM): < 31.6 nM
SMILES: CC(=O)O[C@H]1C(=O)[C@@]2(C)[C@H]([C@H](OC(=O)c3ccccc3)[C@]3(O)C[C@H](OC(=O)[C@H](O)[C@@H](NC(=O)c4ccccc4)c4ccccc4)C(C)=C1C3(C)C)[C@]1(OC(C)=O)CO[C@@H]1C[C@@H]2O + Cc1cnc(CNC(=O)c2c(=O)c3ccc(N4CCCN(C)CC4)nc3n3c2sc2ccccc23)cn1
viability, T/C [1]: 66.7% | viability, T/C (second compound 0.0316 µM, first compound 0.1 µM): 58.1% | viability, T/C [2]: 56.9% | viability, T/C (second compound 0.0316 µM, first compound 1 µM): 40.8% | viability, T/C (second compound 0.0316 µM, first compound 3.16 µM): 54.3% | viability, T/C (second compound 0.0316 µM, first compound 10 µM): 48.4% | viability, T/C [3]: 54.5% | viability, T/C (second compound 0.1 µM, first compound 0.1 µM): 54% | viability, T/C [4]: 51.5% | viability, T/C (second compound 0.1 µM, first compound 1 µM): 45.1% | viability, T/C (second compound 0.1 µM, first compound 3.16 µM): 57.3% | viability, T/C (second compound 0.1 µM, first compound 10 µM): 53.6% | viability, T/C [5]: 56.8% | viability, T/C (second compound 0.316 µM, first compound 0.1 µM): 55.1% | viability, T/C [6]: 52.7% | viability, T/C (second compound 0.316 µM, first compound 1 µM): 52.9% | viability, T/C (second compound 0.316 µM, first compound 3.16 µM): 53.4% | viability, T/C (second compound 0.316 µM, first compound 10 µM): 46.8% | viability, T/C [7]: 40.3% | viability, T/C (second compound 1 µM, first compound 0.1 µM): 41.5% | viability, T/C [8]: 42.3% | viability, T/C (second compound 1 µM, first compound 1 µM): 42.9% | viability, T/C (second compound 1 µM, first compound 3.16 µM): 45.6% | viability, T/C (second compound 1 µM, first compound 10 µM): 34% | viability, T/C [9]: 10.4% | viability, T/C (second compound 3.16 µM, first compound 0.1 µM): 4.44% | viability, T/C [10]: 6.35% | viability, T/C (second compound 3.16 µM, first compound 1 µM): 12.5% | viability, T/C (second compound 3.16 µM, first compound 3.16 µM): 11.3% | viability, T/C (second compound 3.16 µM, first compound 10 µM): 7.23% | viability, T/C [11]: 0.12% | viability, T/C (second compound 10 µM, first compound 0.1 µM): 0.16% | viability, T/C [12]: 0.15% | viability, T/C (second compound 10 µM, first compound 1 µM): 0.17% | viability, T/C (second compound 10 µM, first compound 3.16 µM): 0.2% | viability, T/C (second compound 10 µM, first compound 10 µM): 0.16%

IC50 (second compound 0.0316 µM): 53.2 nM | IC50 (second compound 0.1 µM): 48 nM | IC50 (second compound 0.316 µM): 11.2 nM | IC50 (second compound 1 µM): < 0.999 nM | IC50 (second compound 3.16 µM): < 0.999 nM | IC50 (second compound 10 µM): < 0.999 nM
SMILES: CCc1c2c(nc3ccc(O)cc13)-c1cc3c(c(=O)n1C2)COC(=O)[C@]3(O)CC + Cc1cnc(CNC(=O)c2c(=O)c3ccc(N4CCCN(C)CC4)nc3n3c2sc2ccccc23)cn1
viability, T/C (second compound 0.0316 µM, first compound 0.000999 µM): 63.5% | viability, T/C (second compound 0.0316 µM, first compound 0.00316 µM): 60.3% | viability, T/C (second compound 0.0316 µM, first compound 0.00999 µM): 56.9% | viability, T/C [1]: 53.3% | viability, T/C (second compound 0.0316 µM, first compound 0.0999 µM): 47% | viability, T/C [2]: 30.9% | viability, T/C (second compound 0.1 µM, first compound 0.000999 µM): 66.2% | viability, T/C (second compound 0.1 µM, first compound 0.00316 µM): 65.6% | viability, T/C (second compound 0.1 µM, first compound 0.00999 µM): 52.2% | viability, T/C [3]: 52.7% | viability, T/C (second compound 0.1 µM, first compound 0.0999 µM): 47.1% | viability, T/C [4]: 17.5% | viability, T/C (second compound 0.316 µM, first compound 0.000999 µM): 52.9% | viability, T/C (second compound 0.316 µM, first compound 0.00316 µM): 60% | viability, T/C (second compound 0.316 µM, first compound 0.00999 µM): 51.5% | viability, T/C [5]: 34.5% | viability, T/C (second compound 0.316 µM, first compound 0.0999 µM): 36.9% | viability, T/C [6]: 1.36% | viability, T/C (second compound 1 µM, first compound 0.000999 µM): 38.9% | viability, T/C (second compound 1 µM, first compound 0.00316 µM): 35% | viability, T/C (second compound 1 µM, first compound 0.00999 µM): 35.6% | viability, T/C [7]: 28.7% | viability, T/C (second compound 1 µM, first compound 0.0999 µM): 14.9% | viability, T/C [8]: 0.15% | viability, T/C (second compound 3.16 µM, first compound 0.000999 µM): 13.5% | viability, T/C (second compound 3.16 µM, first compound 0.00316 µM): 12.2% | viability, T/C (second compound 3.16 µM, first compound 0.00999 µM): 4.86% | viability, T/C [9]: 0.17% | viability, T/C (second compound 3.16 µM, first compound 0.0999 µM): 0.14% | viability, T/C [10]: 0.15% | viability, T/C (second compound 10 µM, first compound 0.000999 µM): 0.15% | viability, T/C (second compound 10 µM, first compound 0.00316 µM): 0.14% | viability, T/C (second compound 10 µM, first compound 0.00999 µM): 0.19% | viability, T/C [11]: 0.2% | viability, T/C (second compound 10 µM, first compound 0.0999 µM): 0.2% | viability, T/C [12]: 0.14%
